Measurements as given in US20220251569A1, “TREATMENT AND PREVENTION OF DISEASE MEDIATED BY WWP2” (National University of Singapore, priority 2019, published 2022).

Experiments:
[1] = target: T1, WWP2-N (Homo sapiens, UniProt O00308); assay: Octet RED binding assay to WWP2-N; conditions: compound at 250 μM, binding measured over 120 seconds, Octet RED96e
T1 construct: GST; made in house
T1 sequence (O00308 1-335 limits assumed): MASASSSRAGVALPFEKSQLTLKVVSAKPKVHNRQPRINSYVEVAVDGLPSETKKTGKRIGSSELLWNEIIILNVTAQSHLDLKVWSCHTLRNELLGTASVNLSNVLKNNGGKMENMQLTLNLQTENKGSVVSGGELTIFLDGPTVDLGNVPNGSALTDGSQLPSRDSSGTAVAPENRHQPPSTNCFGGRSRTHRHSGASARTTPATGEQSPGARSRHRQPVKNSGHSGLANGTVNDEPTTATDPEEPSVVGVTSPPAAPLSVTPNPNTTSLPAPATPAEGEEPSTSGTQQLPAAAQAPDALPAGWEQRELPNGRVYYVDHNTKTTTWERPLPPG
Protocol: (§1) The WWP2 isoforms WWP2-FL, WWP2-N and WWP2-C were expressed as a GST fusion protein in bacteria and purified using glutathione sepharose 4B resin (GE Healthcare) according to the manufacturer's instructions. Expression and purity of the expressed WWP2 proteins was analysed by Coomassie Blue staining of the gel after separation by SDS-PAGE and western blotting (WB).
(§2) Binding assays were performed using the Octet RED96e System (FortéBio Inc., Menlo Park, Calif.). WWP2-FL, WWP2-N and WWP2-C proteins were biotinylated using NHS-PEO4-biotin (Pierce). Super-streptavidin (SSA) biosensors (FortéBio Inc., Menlo Park, Calif.) were coated in a solution containing 1 μM of biotinylated protein for 4 hours at 25° C. A duplicate set of sensors were incubated in assay buffer (1× kinetics buffer of ForteBio Inc.) with 5% DMSO without protein, for use as a background binding control. Both sets of sensors were blocked with a solution of 10 ug/ml Biocytin for 5 minutes at 25° C. A negative control of 5% DMSO was also used.
(§3) Binding of samples containing the different compounds (at a concentration of 250 μM) to coated and uncoated reference sensors was measured over 120 seconds. Analysis of the data was performed using a double reference subtraction (sample and sensor references) in the FortéBio data analysis software. […]

[2] = target: T2, WWP2-C (Homo sapiens, UniProt O00308); assay: Octet RED binding assay to WWP2-C; conditions: compound at 250 μM, binding measured over 120 seconds, Octet RED96e
T2 construct: GST; made in house
T2 sequence (O00308 440-870 limits assumed): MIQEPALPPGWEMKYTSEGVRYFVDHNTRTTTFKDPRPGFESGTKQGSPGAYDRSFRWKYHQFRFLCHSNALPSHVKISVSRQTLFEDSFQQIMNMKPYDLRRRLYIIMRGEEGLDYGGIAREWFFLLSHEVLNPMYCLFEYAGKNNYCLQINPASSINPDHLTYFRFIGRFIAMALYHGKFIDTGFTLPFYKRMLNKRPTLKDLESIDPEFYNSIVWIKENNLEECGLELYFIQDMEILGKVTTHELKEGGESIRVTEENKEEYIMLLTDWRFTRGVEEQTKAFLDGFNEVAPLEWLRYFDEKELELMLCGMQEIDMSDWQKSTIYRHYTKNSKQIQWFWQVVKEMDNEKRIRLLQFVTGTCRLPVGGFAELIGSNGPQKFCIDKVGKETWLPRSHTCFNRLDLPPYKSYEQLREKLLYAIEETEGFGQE
Protocol: as §1, §2, §3

[3] = system: primary renal fibroblasts; assay: Cellular fibrosis assay (ACTA2 immunostaining) in TGFβ1-stimulated primary renal fibroblasts; assay type: cell-based, mice; conditions: compound 0.3 mM for 1 hour, then TGFβ1 stimulation 72 hours; fluorescence microscopy
Protocol: Primary renal fibroblasts were obtained from the renal cortex of mice. Minced renal cortex pieces (1-3 mm^3) were placed in 6 cm dishes with DMEM supplemented with 20% fetal bovine serum for less than 10 days to generate mice renal fibroblasts (P0), and passaged to P1 and P2 in DMEM supplemented with 10% fetal bovine serum for experiments. To mimic the in vivo activation of renal fibroblasts in fibrosis, cells were treated with human transforming growth factor-β1 (TGFβ1) (Sigma Aldrich, #T7039) at a concentration of 5 ng/μl for 72 hours.
To test the anti-fibrotic effect of candidate small-molecules, cells were treated with each compound (0.3 mM) for 1 hour, followed by stimulation with TGFβ1 before harvesting. After fixation with ice-cold acetone and blocking with 1% BSA for 30 min at RT, the slides were incubated with primary anti-smooth muscle a actin (ACTA2) antibody (ACTA2 is a widely recognised myofibroblast marker, indicating fibroblast activation) (Sigma-Aldrich, #A5228, 1:100) overnight at 4° C. Following washing steps, slides were incubated with Bovine Anti-Mouse IgG-CFL 488 secondary antibody (Santacruz Biotechnology, #sc-362256, 1:100) for 2 hours at RT. VectaShield Mounting Medium (Vector laboratories, #H-1200) with DAPI was used to stain the nuclei and the slides were covered by coverslip. Slides were imaged on Leica fluorescence microscope (Leica).

Q: Which “Binding level (nm) to WWP2 N isoform” value [1] does the source give for `COc1ccc(-n2c(=O)c3c4c(sc3n(CC(=O)NCc3ccco3)c2=O)CCC4)c(OC)c1` [EP1, 2-[11-(2,4-dimethoxyphenyl)-10,12-dioxo-7-thia-9,11-diazatricyclo[6.4.0.02.6]dodeca-1(8),2(6)-dien-9-yl]-N-(furan-2-ylmethyl)acetamide] here?
A: 0.1253 nm

Q: And the “Binding level (nm) to WWP2 C isoform” value [2]?
A: 0.0061 nm

Q: What about the “Anti-fibrotic response in renal fibroblasts (ACTA2 expression)” value [3] of the same compound?
A: reduced expression of ACTA2
